Measured values published in publication PMC10502087, “Fatty acid binding proteins are novel modulators of synaptic epoxyeicosatrienoic acid signaling in the brain” (Scientific Reports, 2023).
Read-outs that look alike come from different tables or passages of the source.

How the values were obtained:
FABP7 [1] = target: T1, FABP7 (Homo sapiens, UniProt O15540); test: Fluorescent probe (ANS) displacement from purified FABP7; assay type: binding
Text: (§1) We first examined the binding of EETs (Fig. 1) to purified FABP3, FABP5, and FABP7 via fluorescent probe displacement assays as previously described[30],[31]. 5,6-EET, 8,9-EET, 11,12-EET, and 14,15-EET bound to all three FABPs with distinct selectivity. […] Similarly, 11,12-EET emerged as the preferred ligand for FABP5 followed by 8,9-EET, 5,6-EET, and 14,15-EET (Fig. 2A, Table 1). For FABP7, 11,12-EET bound with highest affinity while interactions of the remaining EETs were considerably weaker.
(§2) Affinities of each ligand were determined via fluorescent probe displacement from purified FABPs as previously described[30],[31],[47]. Ligands were incubated in assay buffer (30 mM Tris, 100 mM NaCl, pH 7.5) containing 3 μM purified FABPs, 500 nM DAUDA (for FABP3 and FABP5) or ANS (for FABP7). AA (10 μM) was included to account for maximal probe displacement. The fluorescence signal was quantified on a F5 Filtermax Multi-Mode Microplate Reader (Molecular Devices) with the excitation and emission wavelengths set at 360/535 nm for DAUDA and 360/465 nm for ANS. After background subtraction, normalized fluorescence values were fit to a one-site binding model using GraphPad Prism (v 9.5) and Ki values were determined using the following equation: Ki = IC50/(1 + ([Probe]/Kd).

FABP5 [2] = target: T2, FABP5 (Homo sapiens, UniProt Q01469); test: Fluorescent probe (DAUDA) displacement from purified FABP5; assay type: binding
T2 sequence (Q01469 whole entry): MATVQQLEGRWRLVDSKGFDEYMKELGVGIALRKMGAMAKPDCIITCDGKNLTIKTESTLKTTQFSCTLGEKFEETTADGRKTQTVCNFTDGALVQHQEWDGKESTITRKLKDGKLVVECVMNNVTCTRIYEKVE
Procedure: We first examined the binding of EETs (Fig. 1) to purified FABP3, FABP5, and FABP7 via fluorescent probe displacement assays as previously described[30],[31].
Affinities of each ligand were determined via fluorescent probe displacement from purified FABPs as previously described[30],[31],[47]. Ligands were incubated in assay buffer (30 mM Tris, 100 mM NaCl, pH 7.5) containing 3 μM purified FABPs, 500 nM DAUDA (for FABP3 and FABP5) or ANS (for FABP7). AA (10 μM) was included to account for maximal probe displacement.

FABP3 = FABP3 (Homo sapiens, UniProt P05413); test: Fluorescent probe (DAUDA) displacement from purified FABP3; assay type: binding
Sequence of FABP3 (P05413 whole entry): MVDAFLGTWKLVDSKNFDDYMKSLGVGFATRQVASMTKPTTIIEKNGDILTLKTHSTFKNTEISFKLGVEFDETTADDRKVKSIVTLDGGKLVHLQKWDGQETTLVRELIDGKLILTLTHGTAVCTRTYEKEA
Text: as §1, §2

[3] = tested on: CA1 pyramidal neuron glutamate synapses; test: Ex vivo whole-cell recordings of evoked EPSCs in hippocampal slices; assay type: cell-based, C57Bl/6 mice
Procedure: Mice were deeply anesthetized with isoflurane and decapitated. Coronal brain slices (350 μm thick) containing the hippocampus were cut using a vibratome Leica VT 1200 (Leica, CA) in a modified ice-cold […] artificial cerebrospinal fluid (ACSF) composed in mM: 110 mM choline-Cl, 2.5 mM KCl, 0.5 mM CaCl2, 7 mM MgSO4, 1.25 mM NaH2PO4, 26.2 mM NaHCO3, 11.6 mM sodium L-ascorbate, 3.1 mM sodium pyruvate, and 25 mM glucose, and equilibrated with 95% O2 and 5% CO2. Hippocampal slices were first transferred to a chamber with the same cutting solution at 35 °C for 15 min and then to a standard ACSF in mM: 119 mM NaCl, 2.5 mM CaCl2, 1.3 mM MgSO4, 1 mM NaH2PO4, 26.2 mM NaHCO3, and 11 mM glucose continuously bubbled with a mixture of 95% O2 and 5% CO2 for additional 45 min at 35 °C. Slices were allowed to recover at room temperature (≥ 1 h). After recovery, individual slice was transferred to a recording chamber, continuously perfused with standard ACSF containing 0.01% DMSO saturated with 95% O2 and 5% CO2, and warmed at 30 °C.
Hippocampal CA1 pyramidal neurons were visualized using an upright microscope (BX 51 WI; Olympus, Tokyo, Japan) and somatic whole-cell recordings were obtained from pyramidal neurons using glass pipette electrodes with 3–5 MΩ resistance when filled with an internal solution containing: 120 mM potassium gluconate, 10 mM KCl, 10 mM Na2-phosphocreatine, 10 mM HEPES, 1 mM MgCl2, 1 mM EGTA, 2 mM Na2-ATP, 0.25 mM Na-GTP (pH 7.3 adjusted with KOH; osmolarity, 280–290 mOsmol/l). All recordings were performed in the presence of the GABA A receptor antagonist picrotoxin (100 μM). Excitatory postsynaptic currents (EPSCs) were evoked with electrical pulses (5–20 V, 100–200 μs) delivered at 0.1 Hz using glass microelectrode placed in the […] in CA1 pyramidal neurons voltage-clamped at − 70 mV. All recorded currents were amplified with an a Multiclamp 700B amplifier (Molecular Devices, Sunnyvale, CA), filtered at 3 kHz, digitized at 20 kHz with Digidata 1200 (Molecular Devices), and acquired using the pClamp 10.7 software (Molecular Devices, Sunnyvale, CA). To examine the impact of TPPU on the amplitude of evoked EPSCs, at least 10–20 min of stable baseline recordings were obtained and TPPU was perfused to the brain slices (final DMSO concentration of 0.01%).
For the analysis of the electrophysiology data, the amplitude of evoked EPSCs (eEPSC) was determined by measuring the average current during a 2-ms period at the peak of each eEPSC and subtracted from the average baseline current determined during a 5-ms window taken before the stimulus artifact. All eEPSC amplitudes were normalized to the mean baseline amplitude recorded for at least 10 min before drug application. All the data are represented as the mean ± SE and were not transformed.

[4] = tested on: CA1 pyramidal neuron glutamate synapses; parameters: method as in PMID 28526610, PMID 29138698; conditions: previous studies; cited from earlier work
FABP7 [5] = target: T1, FABP7; parameters: method as in PMID 8798739, PMID 8608126; conditions: cited from earlier work
FABP5 [6] = target: T2, FABP5; parameters: method as in PMID 8798739, PMID 8608126; conditions: cited from earlier work
[7] = mean ± S.E., n = 4, Table 1, read-out: Ki FABP5

T1 sequence (O15540 whole entry): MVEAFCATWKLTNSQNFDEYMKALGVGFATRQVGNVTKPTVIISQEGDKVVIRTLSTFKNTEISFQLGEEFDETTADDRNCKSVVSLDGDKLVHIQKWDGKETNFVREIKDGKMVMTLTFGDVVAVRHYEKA

**Q.** Which results are given for `CCCCCCCC/C=C\CCCCCCCC(=O)OC[C@H](O)COP(=O)(O)O` [LPA, oleoyl lysophosphatidic acid]?
**A.** Ki (FABP7 [1]; mean ± S.E., n = 4, Table 1): > 50 µM; Ki (FABP5 [2]; [7]): 3.2 ± 0.19 µM; Ki (FABP3; mean ± S.E., n = 4, Table 1): 1.37 ± 0.12 µM

**Q.** What does the source list for `O=C(O)C1[C@H](c2ccccc2)C(C(=O)Oc2cccc3ccccc23)[C@H]1c1ccccc1` (stereo partly shown) [SBFI-26]?
**A.** Effect on TPPU-induced potentiation of eEPSCs ([3]; inhibitor 10 µM with TPPU 10 µM, hippocampal slices): significantly reduced; Ki (FABP7 [1]; inhibitors, Table 3): 0.45 ± 0.07 µM; Ki (FABP3; inhibitors, Table 3): 2.7 ± 0.42 µM

**Q.** What does the source list for `CCCCCC(O)C=CC1C(O)CC(O)C1CC=CCCCC(=O)NCCO` (stereo not drawn) [PGF2α-EA, prostamide F2α]?
**A.** Ki (FABP7 [1]; mean ± S.E., n = 4, Table 1): > 50 µM; Ki (FABP5 [2]; [7]): > 50 µM; Ki (FABP3; mean ± S.E., n = 4, Table 1): > 50 µM

**Q.** Which results are given for `CCCCC[C@H]1O[C@H]1C/C=C\C/C=C\C/C=C\CCCC(=O)O` [14,15-EET]?
**A.** Effect on hippocampal glutamate synapses [4]: potentiates; Ki (FABP7 [1]; mean ± S.E., n = 4, Table 1): 3.74 ± 0.12 µM; Ki (FABP5 [2]; [7]): 5.56 ± 0.48 µM; Ki (FABP3; mean ± S.E., n = 4, Table 1): 0.65 ± 0.08 µM

**Q.** With `CCC(=O)N1CCC(NC(=O)Nc2ccc(OC(F)(F)F)cc2)CC1` [TPPU] as the compound, how does the “CA1 pyramidal neurons showing depression of eEPSC amplitude” value ([3]; TPPU 10 µM) read?
**A.** 41%

**Q.** And the “CA1 pyramidal neurons showing potentiation of eEPSC amplitude” value ([3]; TPPU 10 µM)?
**A.** 47%

**Q.** What about the “Coefficient of variation (CV) during depression of EPSCs” value ([3]; TPPU 10 µM vs baseline, n = 5, p = 0.086) of the same compound?
**A.** not accompanied with significant changes

**Q.** And the “Paired pulse ratio (PPR) during depression of EPSCs” value ([3]; TPPU 10 µM vs baseline, n = 5, p = 0.108)?
**A.** not accompanied with significant changes

**Q.** And the “Coefficient of variation (CV) during potentiation of eEPSCs” value ([3]; TPPU 10 µM vs baseline, n = 7, p = 0.0017)?
**A.** significant decrease

**Q.** What about the “Paired pulse ratio (PPR) during potentiation of eEPSCs” value ([3]; TPPU 10 µM vs baseline, n = 7, p = 0.042) of the same compound?
**A.** significant decrease

**Q.** With `CCCCCC(O)C=CC1C(O)CC(=O)C1CC=CCCCC(=O)OCC(O)CO` (stereo not shown) [PGE2-GE, prostaglandin E2 glyceryl ester] as the compound, how does the Ki (FABP7 [1]; mean ± S.E., n = 4, Table 1) read?
**A.** > 50 µM

**Q.** What about the Ki (FABP5 [2]; [7]) of the same compound?
**A.** > 50 µM

**Q.** And the Ki (FABP3; mean ± S.E., n = 4, Table 1)?
**A.** > 50 µM

**Q.** Which “Affinity for FABP7” value (FABP7 [5]) does the source give for `CCCCC[C@H](O)/C=C/[C@H]1[C@H](O)CC(=O)[C@@H]1C/C=C\CCCC(=O)O` [PGE2, prostaglandin E2] here?
**A.** does not display appreciable affinity

**Q.** What about the Ki (FABP7 [1]; mean ± S.E., n = 4, Table 1) of the same compound?
**A.** > 50 µM

**Q.** And the “Affinity for FABP5” value (FABP5 [6])?
**A.** does not display appreciable affinity

**Q.** What about the Ki (FABP5 [2]; [7]) of the same compound?
**A.** > 50 µM

**Q.** And the Ki (FABP3; mean ± S.E., n = 4, Table 1)?
**A.** > 50 µM

**Q.** With `CCCCC/C=C\C[C@H]1O[C@H]1C/C=C\C/C=C\CCCC(=O)O` [11,12-EET] as the compound, how does the “Effect on hippocampal glutamate synapses” value [4] read?
**A.** depresses

**Q.** And the Ki (FABP7 [1]; mean ± S.E., n = 4, Table 1)?
**A.** 1.13 ± 0.11 µM

**Q.** What about the Ki (FABP5 [2]; [7]) of the same compound?
**A.** 0.52 ± 0.07 µM

**Q.** What about the Ki (FABP3; mean ± S.E., n = 4, Table 1) of the same compound?
**A.** 0.2 ± 0.03 µM

**Q.** With `CCCCC/C=C\C/C=C\C/C=C\C[C@H]1O[C@H]1CCCC(=O)O` [5,6-EET] as the compound, how does the Ki (FABP7 [1]; mean ± S.E., n = 4, Table 1) read?
**A.** 4.3 ± 0.29 µM

**Q.** What about the Ki (FABP5 [2]; [7]) of the same compound?
**A.** 3.57 ± 0.28 µM

**Q.** And the Ki (FABP3; mean ± S.E., n = 4, Table 1)?
**A.** 1.44 ± 0.12 µM

**Q.** For `CCCCCC=CC=C1C(=O)C=CC1CC=CCCCC(=O)O` (stereo not shown) [15d-PGJ2, 15-deoxy-Δ^12,14-Prostaglandin J2], which Ki (FABP7 [1]; mean ± S.E., n = 4, Table 1) is on record?
**A.** 29.9 ± 5.64 µM

**Q.** And the Ki (FABP5 [2])?
**A.** 12.3 ± 1.54 µM

**Q.** What about the Ki (FABP3; mean ± S.E., n = 4, Table 1) of the same compound?
**A.** 1.22 ± 0.14 µM

**Q.** With `CCCCC/C=C\C/C=C\C[C@H]1O[C@H]1C/C=C\CCCC(=O)O` [8,9-EET] as the compound, how does the Ki (FABP7 [1]; mean ± S.E., n = 4, Table 1) read?
**A.** 3.16 ± 0.3 µM

**Q.** And the Ki (FABP5 [2]; [7])?
**A.** 1.87 ± 0.21 µM

**Q.** And the Ki (FABP3; mean ± S.E., n = 4, Table 1)?
**A.** 0.17 ± 0.02 µM

**Q.** Which Ki (FABP7 [1]; mean ± S.E., n = 4, Table 1) does the source give for `CCCCC[C@H](O)/C=C/[C@@H]1[C@@H](C/C=C\CCCC(=O)O)[C@@H](O)C[C@H]1O` [PGF2α] here?
**A.** > 50 µM

**Q.** And the Ki (FABP5 [2]; [7])?
**A.** > 50 µM

**Q.** What about the Ki (FABP3; mean ± S.E., n = 4, Table 1) of the same compound?
**A.** > 50 µM
